Consider nine compounds from US20260217735A1, “HETEROCYCLES AND USES THEREOF” (Kumquat Biosciences Inc., priority 2023, published 2026).

In test [1] the target is T1, KRAS G12S (Homo sapiens, UniProt P01116, G12S).
T1 construct: made in house; host or cells: E. coli, e.g. BL21 (DE3)
As to the kind of experiment: HTRF assay, KRAS G12S interaction with SOS1. It is filed as biochemical. The conditions noted are these: bins <500 nM / 500 nM to 1000 nM, read-out: Inhibition of KRAS G12S (IC50).

In test [2] the target is T2, KRAS G12V (Homo sapiens, UniProt P01116, G12V).
T2 construct: made in house; host or cells: E. coli, e.g. BL21 (DE3)
As to the kind of experiment: HTRF assay, KRAS G12V interaction with SOS1. The conditions noted are these: bins <500 nM / 500 nM to 1000 nM, read-out: Inhibition of KRAS G12V (IC50). It counts as biochemical. For orientation: TR-FRET usually uses a lanthanide donor and a delayed reading to cut background.

Test [3] deals with T3, KRAS WT (Homo sapiens, UniProt P01116).
T3 construct: made in house; host or cells: E. coli, e.g. BL21 (DE3)
As to the kind of experiment: HTRF assay, wildtype KRAS interaction with SOS1. It counts as biochemical. The note with it: bins <500 nM / 500 nM to 1000 nM, read-out: Inhibition of KRAS WT (IC50).

Test [4] deals with MiaPaca2 cells. The test can be described thus: Ras cellular assay, growth of cells with K-Ras G12C mutation. It counts as cell-based. The note with it: Homo sapiens, MIA PaCa-2; cell proliferation assay; bins ≤500 nM / >500 nM; read-out: Inhibition of MiaPaca2 Cells (IC50). In outline:
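Anchorage-independent growth: G12C-mutant MIA PaCa-2 plated in soft agar, time-zero plate read the next day when compound was dosed (final DMSO 0.3%). After growth to day 10, MTS-type absorbance at 490/660 nm relative to time zero gave IC50 via four-parameter fitting.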

Test [5] has as its target T4, KRAS G12D (Homo sapiens, UniProt P01116, G12D).
T4 construct: made in house; host or cells: E. coli, e.g. BL21 (DE3)
As to the kind of experiment: HTRF assay, KRAS G12D interaction with SOS1. It is filed as biochemical. The note with it: bins <500 nM / 500 nM to 1000 nM, read-out: Inhibition of KRAS G12D (IC50).

T3 sequence (P01116 1-188 isoform P01116-2): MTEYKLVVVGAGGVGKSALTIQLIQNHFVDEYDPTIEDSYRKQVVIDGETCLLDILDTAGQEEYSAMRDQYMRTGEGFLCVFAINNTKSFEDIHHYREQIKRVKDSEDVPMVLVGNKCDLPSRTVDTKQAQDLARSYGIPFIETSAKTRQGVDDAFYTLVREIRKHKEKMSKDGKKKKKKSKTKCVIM
T4 sequence (P01116 1-188 isoform P01116-2 G12D): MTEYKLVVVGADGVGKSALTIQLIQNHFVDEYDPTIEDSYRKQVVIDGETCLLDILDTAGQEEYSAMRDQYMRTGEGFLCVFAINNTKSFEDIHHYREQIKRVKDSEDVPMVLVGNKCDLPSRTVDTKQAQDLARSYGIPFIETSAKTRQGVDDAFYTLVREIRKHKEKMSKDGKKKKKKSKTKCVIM
T1 sequence (P01116 1-188 isoform P01116-2 G12S): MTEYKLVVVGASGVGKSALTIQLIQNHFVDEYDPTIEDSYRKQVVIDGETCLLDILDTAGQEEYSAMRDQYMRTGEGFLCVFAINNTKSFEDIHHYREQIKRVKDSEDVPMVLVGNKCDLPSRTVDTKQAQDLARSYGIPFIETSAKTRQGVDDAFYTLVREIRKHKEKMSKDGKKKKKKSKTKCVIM
T2 sequence (P01116 1-188 isoform P01116-2 G12V): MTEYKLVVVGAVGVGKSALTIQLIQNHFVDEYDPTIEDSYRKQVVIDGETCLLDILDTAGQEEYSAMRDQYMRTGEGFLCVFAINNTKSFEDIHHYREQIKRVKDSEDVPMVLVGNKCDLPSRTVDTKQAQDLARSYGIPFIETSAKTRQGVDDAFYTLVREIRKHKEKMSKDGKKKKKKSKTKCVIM

For `CCN(c1nc(OCC2(CN3CC4CCC(C3)O4)CC2)nc2c(F)c(-c3ccc(F)c4sc(N)c(C#N)c34)c(C(F)(F)F)cc12)[C@@H]1CCN(C(=O)n2cnc(Cl)n2)[C@@H]1C` [Compound 204, (4S)-4-(2-((1-((8-oxa-3-azabicyclo[3.2.1]octan-3-yl)methyl)cyclopropyl)methoxy)-4-(((2R,3R)-1-(3-chloro-1H-1,2,4-triazole-1-carbonyl)-2-methylpyrrolidin-3-yl)(ethyl)amino)-8-fluoro-6-(trifluoromethyl)quinazolin-7-yl)-2-amino-7-fluorobenzo[b]thiophene-3-carbonitrile], the IC50 in test [1] is under 500 nM; in test [2], under 500 nM; in test [3], under 500 nM; in test [4] it was at most 500 nM; in test [5], under 500 nM.
Consider `C[C@@H]1[C@H](N(C)c2nc(OC[C@@]34CCCN3C[C@H](F)C4)nc3c(F)c(-c4ccc(F)c5sc(N)c(C#N)c45)c(Cl)cc23)CCN1C(=O)n1ccc(C#N)c1` [Compound 205, 1-((2R,3R)-3-((7-(2-amino-3-cyano-7-fluorobenzo[b]thiophen-4-yl)-6-chloro-8-fluoro-2-(((2R,7aS)-2-fluorotetrahydro-1H-pyrrolizin-7a(5H)-yl)methoxy)quinazolin-4-yl)(methyl)amino)-2-methylpyrrolidine-1-carbonyl)-1H-pyrrole-3-carbonitrile], for which the IC50 in test [1] is under 500 nM; in test [2], under 500 nM; in test [3], under 500 nM; in test [4], at most 500 nM; in test [5], under 500 nM.
Turning to `CCN(c1nc(OC[C@@]23CCCN2C[C@H](F)C3)nc2c(F)c(-c3cc(N)c(F)c(C)c3C(F)(F)F)ncc12)[C@@H]1CCN(C(=O)n2cnc(Cl)n2)[C@@H]1C` [Compound 208, ((2R,3R)-3-((7-(5-amino-4-fluoro-3-methyl-2-(trifluoromethyl)phenyl)-8-fluoro-2-(((2R,7aS)-2-fluorotetrahydro-1H-pyrrolizin-7a(5H)-yl)methoxy)pyrido[4,3-d]pyrimidin-4-yl)(ethyl)amino)-2-methylpyrrolidin-1-yl)(3-chloro-1H-1,2,4-triazol-1-yl)methanone], the half-maximal inhibitory concentration (IC50) in test [1] was under 500 nM; in test [2], under 500 nM; in test [3], 500 to 1000 nM; in test [4], at most 500 nM; in test [5], under 500 nM.
Take `Cc1cn(C(=O)N2C[C@]3(CC[C@H](C)N(c4nc(OC[C@@]56CCCN5C[C@H](F)C6)nc5c(F)c(-c6ccc(F)c7sc(N)c(C#N)c67)c(Cl)cc45)C3)[C@H]2C2(C)CC2)cn1` [Compound 210, 2-amino-4-(6-chloro-8-fluoro-2-(((2R,7aS)-2-fluorotetrahydro-1H-pyrrolizin-7a(5H)-yl)methoxy)-4-((1R,4R,7S)-7-methyl-2-(4-methyl-1H-imidazole-1-carbonyl)-1-(1-methylcyclopropyl)-2,6-diazaspiro[3.5]nonan-6-yl)quinazolin-7-yl)-7-fluorobenzo[b]thiophene-3-carbonitrile]: the half-maximal inhibitory concentration (IC50) was under 500 nM in test [1]; under 500 nM in test [2]; under 500 nM in test [3]; at most 500 nM in test [4]; under 500 nM in test [5].
For the compound `C[C@@H]1[C@H](N(C)c2nc(OC[C@@]34CCCN3C[C@H](F)C4)nc3c(F)c(-c4ccc(F)c5sc(N)c(C#N)c45)c(Cl)cc23)CCN1C(=O)n1cnc(Cl)c1` [Compound 211, 2-amino-4-(6-chloro-4-(((2R,3R)-1-(4-chloro-1H-imidazole-1-carbonyl)-2-methylpyrrolidin-3-yl)(methyl)amino)-8-fluoro-2-(((2R,7aS)-2-fluorotetrahydro-1H-pyrrolizin-7a(5H)-yl)methoxy)quinazolin-7-yl)-7-fluorobenzo[b]thiophene-3-carbonitrile], the half-inhibitory concentration (IC50) was under 500 nM in test [1]; under 500 nM in test [2]; under 500 nM in test [3]; at most 500 nM in test [4]; under 500 nM in test [5].
As for `CCN(c1nc(OC[C@@]23CCCN2C[C@@]2(CC2(F)F)C3)nc2c(F)c(-c3ccc(F)c4sc(N)c(C#N)c34)c(C(F)(F)F)cc12)[C@@H]1CCN(C(=O)n2cnc(F)n2)[C@@H]1C` [Compound 212, 2-amino-4-(2-(((1S,7a′S)-2,2-difluorodihydro-1′H,3′H-spiro[cyclopropane-1,2′-pyrrolizin]-7a′(5′H)-yl)methoxy)-4-(ethyl((2R,3R)-1-(3-fluoro-1H-1,2,4-triazole-1-carbonyl)-2-methylpyrrolidin-3-yl)amino)-8-fluoro-6-(trifluoromethyl)quinazolin-7-yl)-7-fluorobenzo[b]thiophene-3-carbonitrile], the IC50 in test [1] was under 500 nM; in test [2] it was under 500 nM; in test [3], under 500 nM; in test [4] it was at most 500 nM; in test [5], under 500 nM.
In the case of `CC(C)c1cn(C(=O)N2CC[C@@H](N(C)c3nc(OC[C@@]45CCCN4C[C@H](F)C5)nc4c(F)c(-c5ccc(F)c6sc(N)c(C#N)c56)c(Cl)cc34)[C@H]2C)cn1` [Compound 213, 2-amino-4-(6-chloro-8-fluoro-2-(((2R,7aS)-2-fluorotetrahydro-1H-pyrrolizin-7a(5H)-yl)methoxy)-4-(((2R,3R)-1-(4-isopropyl-1H-imidazole-1-carbonyl)-2-methylpyrrolidin-3-yl)(methyl)amino)quinazolin-7-yl)-7-fluorobenzo[b]thiophene-3-carbonitrile], the 50% inhibitory concentration (IC50) in test [1] is under 500 nM; in test [2], under 500 nM; in test [3] it was under 500 nM; in test [4], at most 500 nM; in test [5], under 500 nM.
For `CC[C@H]1N(C(=O)n2cnc(C)c2C)C[C@]12CCCCN(c1nc(OC[C@@]34CCCN3C[C@H](F)C4)nc3c(F)c(-c4ccc(F)c5sc(N)c(C#N)c45)c(Cl)cc13)C2` [Compound 215, 2-amino-4-(6-chloro-4-((1R,4R)-2-(4,5-dimethyl-1H-imidazole-1-carbonyl)-1-ethyl-2,6-diazaspiro[3.6]decan-6-yl)-8-fluoro-2-(((2R,7aS)-2-fluorotetrahydro-1H-pyrrolizin-7a(5H)-yl)methoxy)quinazolin-7-yl)-7-fluorobenzo[b]thiophene-3-carbonitrile], the IC50 in test [1] was under 500 nM; in test [2], under 500 nM; in test [3], under 500 nM; in test [4] it was at most 500 nM; in test [5], under 500 nM.
Consider `CC(C)[C@@H]1C[C@H](N(C)c2nc(OC[C@@]34CCCN3C[C@H](F)C4)nc3c(F)c(-c4ccc(F)c5sc(N)c(C#N)c45)c(Cl)cc23)CN1C(=O)n1cnc(Cl)n1` [Compound 216, 2-amino-4-(6-chloro-4-(((3S,5S)-1-(3-chloro-1H-1,2,4-triazole-1-carbonyl)-5-isopropylpyrrolidin-3-yl)(methyl)amino)-8-fluoro-2-(((2R,7aS)-2-fluorotetrahydro-1H-pyrrolizin-7a(5H)-yl)methoxy)quinazolin-7-yl)-7-fluorobenzo[b]thiophene-3-carbonitrile], for which the IC50 in test [1] is under 500 nM; in test [2], under 500 nM; in test [3] it was under 500 nM; in test [4], over 500 nM; in test [5], 500 to 1000 nM.

Usually IC50 stands for the concentration at which inhibition is half-maximal.
